Laboratory results reported in EP0495091B1 (Metabasis Therapeutics Inc., priority 1990, dated 1992).
“And” between values parts separate entries of the source, which are not always exact repeats. Equal values may be shown once. Read-outs that look alike come from different tables or passages of the source.

Tests used:
[1] = target: T1, NBTI-specific adenosine transport site (Homo sapiens, UniProt Q99808); assay: [3H]-NBTI binding assay; conditions: 50% displacement of bound [3H]-NBTI (0.5 nM); neuronal membrane protein, 30 minutes, pH 7.4, room temperature; read-out: ED50 (the source's name)
T1 construct: incubated for 30 minutes with 0.5 mg neuronal membrane protein together with 0.5 nM [^3H]-NBTI; from tissue
T1 sequence (Q99808 1-456): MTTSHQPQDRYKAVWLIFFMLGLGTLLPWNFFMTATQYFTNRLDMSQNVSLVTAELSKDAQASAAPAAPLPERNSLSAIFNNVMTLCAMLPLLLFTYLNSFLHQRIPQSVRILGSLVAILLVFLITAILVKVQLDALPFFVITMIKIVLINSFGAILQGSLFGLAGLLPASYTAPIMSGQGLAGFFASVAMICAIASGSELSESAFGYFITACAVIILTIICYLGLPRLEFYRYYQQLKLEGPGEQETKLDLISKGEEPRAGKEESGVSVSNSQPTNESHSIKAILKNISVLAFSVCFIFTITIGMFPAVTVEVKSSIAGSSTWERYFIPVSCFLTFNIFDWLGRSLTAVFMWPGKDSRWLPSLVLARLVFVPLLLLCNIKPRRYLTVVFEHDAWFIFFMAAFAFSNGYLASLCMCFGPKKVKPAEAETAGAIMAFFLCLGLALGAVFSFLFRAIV
Protocol: Increasing concentrations of the test compounds were incubated for 30 minutes with 0.5 mg neuronal membrane protein together with 0.5 nM [^3H]-NBTI in a Tris buffer (pH 7.4) at room temperature. The assays were quenched and membranes collected by rapid filtration. Filters were then solubilized and radioactivity determined by scintillation counting.

[2] = test system: Isolated rat hearts; assay: Improved functional recovery in isolated hearts (Langendorff, post-ischemic LVDP); conditions: 30 min ischemia, 30 min reperfusion, number in brackets = hearts
Protocol: Isolated rat hearts were cannulated via the ascending aorta and attached to a perfusion apparatus according to the method of Langendorff. The hearts were perfused at a constant pressure of 100 cm of H2O with a modified Krebs-Henseleit buffer (pH 7.4) at 37°C. As a measure of heart function, left ventricular developed pressure (LVDP) was continuously monitored. Following equilibration of the hearts for a period of 30 min., the hearts were subjected to reduced flow i.e. ischemia, by reducing the pressure to 10 cm of H2O for 30 min. Flow was then restored by returning the pressure to its original level (100 cm of H2O) for a further 30 min.

[3] = test system: coronary endothelial cells; assay: Inhibition of adenosine utilization in cell culture; format: cell-based; conditions: for inhibition at 5 µM / inhibition at 50 µM: Endothelial cell, read-out: Inhibition of Adenosine Utilization (%); for Inhibition of Adenosine Utilization (%): 1 µM [3H] adenosine, 15 minutes
Protocol: Inhibition of adenosine utilization was determined by measuring the concentration of extracellular adenosine by scintillation counting following separation by thin layer chromatography (TLC).

[4] = test system: longitudinal muscle from the guinea pig ileum; assay: Inhibition of stimulated contraction in isolated ileum
Protocol: Parallel platinum electrodes were used to deliver electrical current at 1 minute intervals at a voltage adequate to induce contraction of 90% of maximal.

[5] = test system: platelet aggregation in human whole blood; assay: Inhibition of platelet aggregation in human whole blood; format: cell-based; conditions: 10 minutes at 37°C, 10 µM adenosine added 5 minutes before, ADP (6-25 µM) induced, impedance technique
Protocol: Whole blood was drawn from healthy donors and collected in 0.1 vol. of sodium citrate to prevent coagulation. Platelet aggregation was measured by the impedance technique using a Whole Blood Aggregometer.

SMILES: Nc1c(C(=O)SCc2ccc([N+](=O)[O-])cc2)ncn1[C@@H]1O[C@H](CO)[C@@H](O)[C@H]1O
- EC50 [1]: 0.5 µM
- Function Recovery % Baseline LVDP (% of hearts) ([2]; 1 µM in perfusion buffer): 74.0±2.8 (6) %
- inhibition at 5 µM [3]: 17 ± 3%
- inhibition at 50 µM [3]: 19 ± 2%
- IC50 ([4]; Cavia porcellus): 10 µM

SMILES: Nc1c(C(=O)NCc2ccc(Cl)cc2Cl)ncn1[C@@H]1O[C@H](CO)[C@@H](O)[C@H]1O [Compound No. 25, 5-amino-1-β-D-ribofuranosylimidazole-4-N-[(2,4-dichlorophenyl)methyl]carboxamide]
- EC50 [1]: 72 µM
- Function Recovery % Baseline LVDP (% of hearts) ([2]; 5 µM in perfusion buffer, listed as 25 (1-360)): 86.8±2.3 (6) % and 72.4±1.6 (6) %
- inhibition at 5 µM [3]: 21 ± 1%
- inhibition at 50 µM [3]: 56 ± 2%
- IC50 ([4]; Cavia porcellus): 20 µM

SMILES: NC(=O)c1ncn([C@@H]2O[C@H](CCl)[C@@H](O)[C@H]2O)c1N [Compound No. 26, 5-amino-1-(5-chloro-5-deoxy-β-D-ribofuranosyl) imidazole-4-carboxamide]
- Function Recovery % Baseline LVDP (% of hearts) ([2]; 5 µM in perfusion buffer): 70.7±4.1 (8) %
- IC50 ([4]; concentration which inhibited electrically stimulated contraction by 50%, read-out: IC50): 200 µM

SMILES: Nc1c(C(=O)NCc2cccc([N+](=O)[O-])c2)ncn1[C@@H]1O[C@H](CO)[C@@H](O)[C@H]1O [Compound No. 28, 5-amino-1-β-D-ribofuranosylimidazole-4-N-[(3-nitrophenyl)methyl]carboxamide]
- EC50 [1]: 15 µM
- inhibition at 5 µM [3]: 17 ± 3%
- inhibition at 50 µM [3]: 47 ± 2%
- IC50 ([5]; Homo sapiens, Platelet): 180 µM

SMILES: Cc1ccc(CNC(=O)c2ncn([C@@H]3O[C@H](CO)[C@@H](O)[C@H]3O)c2N)cc1 [Compound No. 30, 5-amino-1-β-D-ribofuranosylimidazole-4-N-[(4-methylphenyl)methyl]carboxamide]
- EC50 [1]: 225 µM
- inhibition at 5 µM [3]: 21 ± 1%
- inhibition at 50 µM [3]: 49 ± 4%
- IC50 ([4]; Cavia porcellus): 20 µM

SMILES: CCCCO[C@@H]1[C@H](O)[C@@H](CO)O[C@H]1n1cnc(C(N)=O)c1N [Compound No. 32, 5-amino-1-(2-O-n-butyl-β-D-ribofuranosyl) imidazole-4-carboxamide]
- IC50 ([5]; Homo sapiens, Platelet): 350 µM
- IC50 ([4]; Cavia porcellus, concentration which inhibited electrically stimulated contraction by 50%, read-out: IC50): 100 µM

SMILES: COc1ccc(CNC(=O)c2ncn([C@@H]3O[C@H](CO)[C@@H](O)[C@H]3O)c2N)cc1 [Compound No. 39, 5-Amino-1-β-D-ribofuranosyl-imidazole-4-N-(p-methoxybenzyl)carboxamide]
- EC50 [1]: 600 µM
- inhibition at 5 µM [3]: 7 ± 4%
- inhibition at 50 µM [3]: 29 ± 1%
- IC50 ([4]; Cavia porcellus): 500 µM

SMILES: NC(=O)c1nc(Sc2ccccc2)n([C@@H]2O[C@H](CO)[C@@H](O)[C@H]2O)c1N [Compound No. 43, 5-Amino-2-thiophenyl-1-β-D-ribofuranosylmidazole-4-carboxamide]
- EC50 [1]: 71 µM
- IC50 ([5]; Homo sapiens, Platelet): 620 µM
- IC50 ([4]; Cavia porcellus): 200 µM

SMILES: Nc1c(C(=O)NCc2ccc(Br)cc2)ncn1[C@@H]1O[C@H](CO)[C@@H](O)[C@H]1O [Compound No. 56, 5-Amino-1-β-D-ribofuranosyl-imidazole-4-N-[(4-bromophenyl)methyl]carboxamide]
- EC50 [1]: 32 µM
- inhibition at 5 µM [3]: 55 ± 7%
- inhibition at 50 µM [3]: 65 ± 9%
- IC50 ([5]; Homo sapiens, Platelet): 75 µM

SMILES: Nc1c(C(=O)NCCc2ccc([N+](=O)[O-])cc2)ncn1[C@@H]1O[C@H](CO)[C@@H](O)[C@H]1O [Compound No. 59]
- EC50 [1]: 2 µM
- Function Recovery % Baseline LVDP (% of hearts) ([2]; 1 µM in perfusion buffer): 75.8±2.2 (7) %
- IC50 ([5]; Homo sapiens, Platelet): 70 µM

SMILES: C[C@H]1O[C@@H](n2cnc(C(=O)NCc3ccc(Cl)cc3)c2N)[C@H](O)[C@@H]1O [Compound No. 61, 5-Amino-1-(5-deoxy-β-D-ribofuranosyl) imidazole-4N-[(4-chlorophenyl)methyl]carboxamide]
- EC50 [1]: 32 µM
- inhibition at 5 µM [3]: 37 ± 28%
- inhibition at 50 µM [3]: 72 ± 5%
- IC50 ([5]; Homo sapiens, Platelet): 171 µM

SMILES: [N-]=[N+]=NC[C@H]1O[C@@H](n2cnc(C(=O)NCc3ccc([N+](=O)[O-])cc3)c2N)[C@H](O)[C@@H]1O [Compound No. 71, 5-Amino-1-(5-azido-5-deoxy-B-D-ribofuranosyl)imidazole-4-N-[(4-nitrophenyl)methyl]carboxamide]
- Inhibition of Adenosine Utilization (%) ([3]; 5 µM test compound): 10 ± 3%
- Inhibition of Adenosine Utilization (%) ([3]; 50 µM test compound): 31 ± 11%
- IC50 [5]: 40 µM

SMILES: NC[C@H]1O[C@@H](n2cnc(C(=O)NCc3ccc([N+](=O)[O-])cc3)c2N)[C@H](O)[C@@H]1O [Compound No. 72]
- IC50 [5]: 300 µM
